Measured values from patent US6277851A, “Bicyclic amino-pyrazinone compounds” (priority 1999, dated 2001).
pIC50: −log10 of the molar value. Counter-ions that a name gives are not always drawn.

Assays:
human plasma [1] = experiment: Anti-coagulant activity, thrombin time (TT) in human plasma; type: biochemical; details: 37° C.
Description: (§1) In order to evaluate the anti-coagulant activity of the compounds of the invention, the thrombin time (TT) and activated cephalin time (ACT) were determined from human plasma samples. An ST4 coagulometer (Diagnostica Stago, France) was used. Plasma, deficient in platelets and lyophilised (Stago), is taken up in distilled water. The TT is obtained using the reagent Prest Thrombin and the ACT using the reagent PTT Automate […]. […] Under those conditions, the TT is of the order of 18 seconds and the ACT is of the order of 12 seconds. The activity of an antagonist is evaluated by its capacity to prolong the TT and the ACT relative to the control. The effect of the inhibitors is expressed by the concentration in μM that doubles the coagulation time (Ctt2).

dog plasma [2] = experiment: Anti-coagulant activity after administration per os to dogs, ACT; type: in vivo; details: p.o.
Description: (§2) […] The coagulation times (TT, ACT) are determined from dog plasma samples 10 minutes before and 30 min, 1 hour, 2 hours, 4 hours and 6 hours after administration of the products.

dog plasma [3] = experiment: Anti-coagulant activity after administration per os to dogs, TT; type: in vivo; details: p.o.
Description: as §2

human plasma [4] = experiment: Anti-coagulant activity, activated cephalin time (ACT) in human plasma; type: biochemical; details: 37° C.
Description: as §1

human thrombin = biological target: T1, human thrombin (Homo sapiens, UniProt P00734); experiment: Inhibition of human thrombin (fibrinogen substrate, fibrin formation); type: biochemical; details: human thrombin 0.7 nM, 10 min preincubation, 20° C., pH 7.4
T1 construct: purchased Sigma
Description: (§3) Inhibitors, enzymes and substrates are diluted in the same buffer ([…] phosphate buffer, pH 7.4, containing 0.12 M sodium chloride and 0.05% of bovine serum albumin) and then distributed on a polystyrene microtitre plate in a volume of 50 μl. The fibrin formed by the thrombin or by the paranitroanilide released by the action of the serine protease is measured using a spectrophotometer at 405 nm after from 15 to 30 minutes' reaction at 20° C. Table 2 below gives in nM the concentration of the compounds that inhibits 50% of the enzymatic activity (IC50) of the thrombin compared with the control without product.

t-PA = t-PA (Homo sapiens, UniProt P00750); experiment: Inhibition of fibrinolysis serine proteases: t-PA; type: biochemical; details: fibrinolysis protease
Sequence of t-PA (P00750 36-562): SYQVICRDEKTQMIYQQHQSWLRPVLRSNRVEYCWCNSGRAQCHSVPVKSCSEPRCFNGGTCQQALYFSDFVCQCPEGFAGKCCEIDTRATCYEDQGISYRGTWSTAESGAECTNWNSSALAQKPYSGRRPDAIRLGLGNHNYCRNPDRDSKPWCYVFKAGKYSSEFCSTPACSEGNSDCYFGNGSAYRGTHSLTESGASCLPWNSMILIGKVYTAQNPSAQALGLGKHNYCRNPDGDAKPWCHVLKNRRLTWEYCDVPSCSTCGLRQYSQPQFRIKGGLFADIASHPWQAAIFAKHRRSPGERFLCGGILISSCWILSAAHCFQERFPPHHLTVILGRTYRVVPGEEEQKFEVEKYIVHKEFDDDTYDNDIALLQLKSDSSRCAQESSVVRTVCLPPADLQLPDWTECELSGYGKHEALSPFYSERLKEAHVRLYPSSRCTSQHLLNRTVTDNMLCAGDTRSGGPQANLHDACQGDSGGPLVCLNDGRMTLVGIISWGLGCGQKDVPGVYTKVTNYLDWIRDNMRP
Description: as §3, with “Table 3” for “Table 2”, “the fibrinolysis proteases.” for “the thrombin compared with the control without product.”

human plasmin = biological target: T2, human plasmin (Homo sapiens, UniProt P00747); experiment: Inhibition of fibrinolysis serine proteases: plasmin; type: biochemical; details: human plasmin 2 nM, substrate S 2403 0.50 mM, 20° C., pH 7.4
T2 construct: purchased Stago
T2 sequence (P00747 581-810 limits assumed): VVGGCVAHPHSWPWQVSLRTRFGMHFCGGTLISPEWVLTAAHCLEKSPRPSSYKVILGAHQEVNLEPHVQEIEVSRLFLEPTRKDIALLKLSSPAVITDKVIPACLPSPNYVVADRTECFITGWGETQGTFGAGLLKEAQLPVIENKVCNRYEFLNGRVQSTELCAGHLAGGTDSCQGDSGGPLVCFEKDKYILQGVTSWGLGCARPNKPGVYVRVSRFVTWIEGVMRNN
Description: as §3, with “Table 3” for “Table 2”, “the fibrinolysis proteases.” for “the thrombin compared with the control without product.”

uPA = uPA (Homo sapiens, UniProt P00749); experiment: Inhibition of fibrinolysis serine proteases: uPA; type: biochemical; details: fibrinolysis protease
Description: as §3, with “Table 3” for “Table 2”, “the fibrinolysis proteases.” for “the thrombin compared with the control without product.”

| Compound | TT Ctt2 (concentration that doubles the coagulation time) (human plasma [1]) [µM] | Maximum ACT increase (number of times by which the initial time has been increased) (dog plasma [2]; 3 mg/kg) [times] | Maximum TT increase (number of times by which the initial time has been increased) (dog plasma [3]; 3 mg/kg) [times] | ACT Ctt2 (concentration that doubles the coagulation time) (human plasma [4]) [µM] | pIC50 (human thrombin) | pIC50 (t-PA) | pIC50 (human plasmin) | pIC50 (uPA) | Maximum ACT increase (number of times by which the initial time has been increased) (dog plasma [2]; 10 mg/kg) [times] | Maximum TT increase (number of times by which the initial time has been increased) (dog plasma [3]; 10 mg/kg) [times] |
| --- | --- | --- | --- | --- | --- | --- | --- | --- | --- | --- |
| Cc1nc(N)ccc1CNC(=O)[C@@H]1CCc2cnc(NCC(c3ccccc3)c3ccccn3)c(=O)n21 (single isomer, unassigned) [Example 20] | 0.15 | 1.4 | 4.4 | 2.17 | 8.22 |  |  |  |  |  |
| Cc1nc(N)ccc1CNC(=O)[C@@H]1CCc2cnc(NCCc3ccccc3)c(=O)n21 [Example 1, (6S)-N-[(6-Amino-2-methyl-3-pyridyl)methyl]-4-oxo-3-(2-phenethylamino)-4,6,7,8-tetrahydropyrrolo[1,2-a]pyrazine-6-carboxamide dihydrochloride] | 3 | 1.6 | 3.6 | 9.1 | 7.47 | < 4.48 | < 4.48 | < 4.48 |  |  |
| Cc1nc(N)ccc1CNC(=O)[C@@H]1CCc2cnc(NCC(c3ccccc3)c3ccccc3)c(=O)n21.Cl.Cl [Example 6, (6S)-N-[(6-Amino-2-methyl-3-pyridyl)methyl]-3-[(2,2-diphenylethyl)amino]-4-oxo-4,6,7,8-tetrahydropyrrolo[1,2-a]pyrazine-6-carboxamide dihydrochloride] | 0.4 |  |  | 2.5 | 7.96 | < 4.48 | < 4.48 | < 4.48 | 1.7 | 6.2 |
| COc1ccc(CCNc2ncc3n(c2=O)[C@H](C(=O)NCc2ccc(N)nc2C)CC3)cc1OC.Cl.Cl.O [Example 7, (6S)-N-[(6-Amino-2-methyl-3-pyridyl)methyl]-3-[(3,4-dimethoxyphenethyl)amino]-4-oxo-4,6,7,8-tetrahydropyrrolo[1,2-a]pyrazine-6-carboxamide dihydrochloride monohydrate] | 3 | 1.4 | 2.5 | 9.1 | 7.38 | < 4.48 | < 4.48 | < 4.48 |  |  |
| Cc1nc(N)ccc1CNC(=O)[C@@H]1CCc2cnc(NCCc3ccccn3)c(=O)n21.Cl.Cl.Cl [Example 15, (6S)-N-[(6-Amino-2-methyl-3-pyridyl)methyl]-4-oxo-3-[2-(2-pyridyl)ethylamino]-4,6,7,8-tetrahydropyrrolo[1,2-a]pyrazine-6-carboxamide trihydrochloride] | 0.11 | 1.6 | 7 | 1.3 | 8.15 | < 4.48 | < 4.48 | < 4.48 |  |  |
| Cc1nc(N)ccc1CNC(=O)[C@@H]1CCc2cnc(NCCc3cccnc3)c(=O)n21.Cl.Cl.Cl [Example 16, (6S)-N-[(6-Amino-2-methyl-3-pyridyl)methyl]-4-oxo-3-[2-(3-pyridyl)ethylamino]-4,6,7,8-tetrahydropyrrolo[1,2-a]pyrazine-6-carboxamide trihydrochloride] | 0.17 |  |  | 1.6 | 7.77 |  |  |  | 2.4 | 13.3 |
| Cc1nc(N)ccc1CNC(=O)[C@@H]1CCc2cnc(NCC(c3ccccn3)c3ccccn3)c(=O)n21.Cl.Cl.Cl.Cl [Example 22, (6S)-N-[(6-Amino-2-methyl-3-pyridyl)methyl]-3-[2,2-di-(2-pyridyl)ethylamino]-4-oxo-4,6,7,8-tetrahydropyrrolo[1,2-a]pyrazine-6-carboxamide tetrahydrochloride] | 0.22 |  |  | 3.07 | 7.70 |  |  |  | 1.5 | 4.5 |
| COc1ccc(C(CNc2ncc3n(c2=O)[C@H](C(=O)NCc2ccc(N)nc2C)CC3)c2ccc(OC)cc2)cc1.Cl.Cl [Example 23, (6S)-N-[(6-Amino-2-methyl-3-pyridyl)methyl]-3-[2,2-bis-(4-methoxy-phenyl)ethylamino]-4-oxo-4,6,7,8-tetrahydropyrrolo[1,2-a]pyrazine-6-carboxamide dihydrochloride] | 0.24 |  |  | 2.75 | 8.41 |  |  |  |  |  |
| Cc1nc(N)ccc1CNC(=O)[C@@H]1CCc2cnc(NCC3c4ccccc4CCc4ccccc43)c(=O)n21 [Example 40, (6S)-N-[(6-Amino-2-methyl-3-pyridyl)methyl]-3-[(10,11-dihydro-5H-dibenzo[a,d]cyclohepten-5-yl)methylamino]-4-oxo-4,6,7,8-tetrahydropyrrolo[1,2-a]pyrazine-6-carboxamide dihydrochloride] |  |  |  |  | 7.37 |  |  |  |  |  |
| Cc1nc(N)ccc1CNC(=O)[C@@H]1CCc2cnc(NCCc3cccc4ccccc34)c(=O)n21 [Example 50, (6S)-N-[(6-Amino-2-methyl-3-pyridyl)methyl]-3-[2-(1-naphthyl)ethylamino]-4-oxo-4,6,7,8-tetrahydropyrrolo[1,2-a]pyrazine-6-carboxamide dihydrochloride] |  |  |  |  | 7.54 |  |  |  |  |  |
| Cc1cc(CNC(=O)[C@@H]2CCc3cnc(NCCc4ccccn4)c(=O)n32)c(C)nc1N.Cl.Cl.Cl [Example 68, (6S)-N-[(6-Amino-2,5-dimethyl-3-pyridyl)methyl]-3-[2-(2-pyridyl)ethylamino]-4-oxo-4,6,7,8-tetrahydropyrrolo[1,2-a]pyrazine-6-carboxamide trihydrochloride] | 0.23 |  |  | 2.04 | 7.80 |  |  |  |  |  |
| CCNC(=O)COc1ccccc1CNC(=O)[C@@H]1CCc2cnc(NCCc3ccccc3)c(=O)n21 [Example 71, (6S)-N-[(2-Ethylcarbamoylmethoxy)benzyl]-4-oxo-3-(2-phenethylamino)-4,6,7,8-tetrahydropyrrolo [1,2-a]pyrazine-6-carboxamide] |  |  |  |  | 7.89 | < 4.48 | < 4.48 | < 4.48 |  |  |
| COc1ccc(C(CNc2ncc3n(c2=O)C(C(=O)NCc2ccc(N)nc2C)CC3)c2ccc(OC)cc2)cc1.Cl.Cl (centres unmarked) [Example 98, N-[(6-Amino-2-methyl-3-pyridyl)-methyl]-3-[2,2-bis-(4-methoxy-phenyl)-ethylamino]-4-oxo-4,6,7,8-tetrahydropyrrolo[1,2-a]pyrazine-6-carboxamide dihydrochloride] | 0.33 |  |  | 3.54 | 8.10 | < 4.48 | < 4.48 | < 4.48 | 1.4 | 6.1 |
| CCNC(=O)COc1ccccc1CNC(=O)[C@@H]1CCc2cnc(NCC(c3ccccc3)c3ccccc3)c(=O)n21 [Example 103, (6S)-N-[(2-Ethylcarbamoylmethoxy)-benzyl]-4-oxo-3-(2,2-diphenylethylamino)-4,6,7,8-tetrahydropyrrolo[1,2-a]pyrazine-6-carboxamide hydrochloride] |  |  |  |  | 7.85 |  |  |  |  |  |
